The values below come from patent US6346531B1, “G-CSF mimetics” (SmithKline Beecham Corporation, priority 1998, dated 2002).

Molecules are shown by their SMILES.

One experiment deals with mouse CFU-g. Briefly: CFU-g assay (colony assay), mouse. The class given is cell-based. The conditions noted are these: potency as G-CSF mimetic. The method, then: (§1) In determining potency as G-CSF mimetics, the following assay is employed: CFU-g Assay
(§2) The compounds of present invention are tested for potency as G-CSF mimetics in a CFU-g assay, an example of which is described in King AG, Talmadge J., Badger AM, Pelus LM. Regulation of colony stimulating activity production from bone marrow stromal cells by the hematoregulatory peptide, HP-5. Exp. Hematol. 20:223-228, 1992.

The next experiment deals with human CFU-g. Briefly: CFU-g assay (colony assay), human. The class given is cell-based. The conditions noted are these: potency as G-CSF mimetic. The protocol:
as §1, §2

On to `O=c1n2c(nc3n1[C@]1(c4ccccn4)n4c(nc5nc6ccccc6n5c4=O)N[C@]1(c1ccccn1)N3)nc1ccccc12` [Compound A, 7a, 17a-bis(2-pyridyl)-16,19-dioxo-5,7a, 10,16,17a, 19-hexahydro-benzimidazo[2′,1′:4,5][1,3,5]triazino[1,2-a]benzimidazo[2″,1″:4′,5′][1,3,5]triazino[1′,2′:1,2]imidazo[4,5-d]imidazole], for which the “mouse CFU-g, colony assay/% Gmax @ 3 uM” value with mouse CFU-g turned out to be 43 % Gmax. The “human CFU-g, colony assay/% Gmax @ 3 uM” value in the experiment with human CFU-g turned out to be 41 % Gmax.
